Patent publication US20170298406A1, “SALT OF PHENYLGLYCINE METHYL ESTER” (DSM Sinochem Pharmaceuticals Netherlands B.V., priority 2014, published 2017)
Where a name gives a salt, the structure may show the parent alone.

Experiment: Solubility of (PGMH)2SO4 in water as a function of temperature (HPLC of filtered supernatant)
Assay type: physicochemical
Details: filtrate by HPLC
From the text: In the preparation of (PGMH)2SO4 as described in Example 2 separation of the organic phase at pH=4.2 is done while (PGMH)2SO4 is supersaturated. At some point in time, crystallization may start before the organic layer is separated from the aqueous phase. In order to design a process that will avoid crystallization of (PGMH)2SO4 in the presence of organic solvent, and controlled crystallization after separation of the organic phase, solubility of (PGMH)2SO4 as a function of temperature was investigated. The hemi sulfuric acid salt of D-phenylglycine methyl ester (1 g), obtained as described in Example 2 was mixed with water (2 g) at 20° C. and the solid material dissolved. Additional hemi sulfuric acid salt of D-phenylglycine methyl ester (1 g) was added and the mixture was agitated at 20° C. for 25 minutes. Not all solid was dissolved. An aliquot of approximately 0.5 mL of supernatant was filtered, and in the filtrate the concentration of hemi sulfuric acid salt of D-phenylglycine methyl ester was determined by HPLC. The rest of the mixture was stirred at 3° C. Water (2 mL) was added to allow mixing. […] An aliquot of approximately 0.5 mL of supernatant was filtered and in the filtrate the concentration of hemi sulfuric acid salt of D-phenylglycine methyl ester was determined by HPLC.

Solubility in water: hemi sulfuric acid salt of D-phenylglycine methyl ester (g)/kg of solution (T 3 °C, agitated 30 minutes): 268 g/kg of solution | Solubility in water: hemi sulfuric acid salt of D-phenylglycine methyl ester (g)/kg of solution (T 20 °C, agitated 25 minutes): 478 g/kg of solution
Compound: COC(=O)[C@H](N)c1ccccc1 [hemi sulfuric acid salt of D-phenylglycine methyl ester]
